Experimental data: article PMC11540844, “Enhancing transcription–replication conflict targets ecDNA-positive cancers” (Nature, 2024)
Like-named read-outs stand apart in the source and are kept apart here.

Assays:
[1] = test system: γH2AX in COLO320DM and COLO320HSR cells; test: γH2AX IF combined with EdU labelling; format: cell-based, human; details: COLO320DM vs COLO320HSR, especially EdU+ cells
Description: Coverslips were coated with 100 µg ml^−^1 poly-L-lysine overnight or 10 µg ml^−^1 laminin for 1 h at 37 °C before seeding cells. Asynchronized cells were seeded onto slides and subject to different treatment. Where indicated, EdU was added to each well at 10 µg ml^−^1 30 min before collecting samples. IF and dual-IF DNA FISH staining were performed as described before. Briefly, slides were fixed with ice-cold 4% paraformaldehyde (PFA) for 15 min, followed by permeabilization with 0.5% Triton X-100 in PBS for 15 min at room temperature. Samples were blocked with 3% BSA in PBS for 1 h at room temperature before incubation with primary antibody diluted in blocking buffer at 4 °C overnight. Dilution ratio for first antibodies was as follows: γH2Ax, 1:500; pRPA2-S33, 1:1,000; pCHK1S345, 1:250; 53BP1, 1:500; cyclin A, 1:100; pRNAPII S2/S4, 1:1,000. […]
Image analysis and quantification were performed using the open-source software CellProfiler (v.4.2.1). For foci number analysis, DAPI staining, IF staining and DNA FISH channel were analysed through automatic thresholding and segmentation to cell nuclei, pRPA2S33/γH2AX foci and DNA FISH foci respectively. […] For fluorescence intensity measurement, nuclei were called based on DAPI channel through automatic thresholding and segmentation; mean fluorescence intensity was retrieved by measuring mean fluorescence intensity within each nucleus.

[2] = test system: COLO320HSR cells; test: Cell viability / CTG proliferation (CellTiter-Glo); format: cell-based, human; details: for IC50: Extended Data Fig. 8
Description: (§1) Cell viability assay was performed using CellTiter-Glo (Promega, catalgoue no. G8461) as previously described. Briefly, cells were seeded into a 384-well plate one day before adding inhibitors. Equal volumes of vehicles or drugs diluted at indicated concentration were added into each well the next day, and the cells were incubated for three days. On the third day, after equilibrating plate and CellTiter-Glo reagent at room temperature for 30 min, reagent was added into each well and incubated for 15 min at room temperature. Luminescence was measured using a Synergy 2 microplate reader. Four biological replicates were performed for each condition. Data analysis was performed with GraphPad Prism (v.9.1.0).

[3] = test system: COLO320DM cells; test: Cell viability / CTG proliferation (CellTiter-Glo); format: cell-based, human
Description: as §1

[4] = test system: GBM39ec cells; test: Cell viability (CellTiter-Glo); format: cell-based, human; details: Extended Data Fig. 8
Description: as §1

[5] = test system: GBM39HSR cells; test: Cell viability (CellTiter-Glo); format: cell-based, human; details: Extended Data Fig. 8
Description: as §1

[6] = test system: SNU16 cells; test: Cell viability (CellTiter-Glo); format: cell-based, human; details: Extended Data Fig. 8; read-out: IC50 SNU16
Description: as §1, with “(v.9.1.0). […]” for “(v.9.1.0).”

[7] = test system: ecDNA-containing tumour cells; test: TUNEL and PI-Annexin V staining (apoptosis); format: cell-based, human; details: 1 µM CHIR-124, ecDNA-containing vs HSR cells
Description: TUNEL assay (Invitrogen, catalogue no. C10617) was performed to detect DNA fragmentation during apoptosis. COLO320DM, COLO320HSR and SNU16 cells were treated with 1 µM CHIR-124 for indicated times. All cells including floating cells were collected and spun down onto slides using a cytospin (Thermo Scientific Cytospin 4 Centrifuge). Slides were fixed with 4% PFA and permeabilized with 0.25% Triton X-100, followed by labelling of free double strand end with EdUTP by reaction catalysed by TdT enzyme in a humidified chamber at 37 °C for 60 min. Incorporated EdUTP was detected through Click-iT Plus TUNEL reaction according to the manufacturer’s manual at 37 °C for 30 min. Slides were counterstained with DAPI and mounted with ProLong Diamond Antifade.
Cell apoptosis was detected through flow cytometry using a FITC Annexin V Apoptosis Detection Kit (BD Biosciences, catalogue no. 556547). Cells were treated with 1 µM of CHIR-124 for the indicated time, and all the cells including floating cells were collected. After washing with PBS twice and cell number counting, cells were resuspended in 1× binding buffer provided by the kit at a concentration of 1 × 10^6 cells per millilitre. […] After incubation at room temperature for 15 min, all the samples were analysed with BD LSR II flow cytometry (BD Biosciences) within 1 h. Flow cytometry data were analysed through Beckman Coulter Kaluza software (v.2.1).

[8] = test system: CHK1/CHK2; test: CHK1/CHK2 selectivity; format: biochemical
[9] = molecular target: T1, Full-length human CHK1 protein (Homo sapiens, UniProt O14757); test: Kinase HTRF biochemical assay (CHK1 enzyme inhibition); details: HTRF KinEASE, ATP 1 mM; read-out: CHK1 biochemical potency (IC50)
T1 construct: purchased Carna Biosciences, Inc. 02-117
T1 sequence (O14757 1-476): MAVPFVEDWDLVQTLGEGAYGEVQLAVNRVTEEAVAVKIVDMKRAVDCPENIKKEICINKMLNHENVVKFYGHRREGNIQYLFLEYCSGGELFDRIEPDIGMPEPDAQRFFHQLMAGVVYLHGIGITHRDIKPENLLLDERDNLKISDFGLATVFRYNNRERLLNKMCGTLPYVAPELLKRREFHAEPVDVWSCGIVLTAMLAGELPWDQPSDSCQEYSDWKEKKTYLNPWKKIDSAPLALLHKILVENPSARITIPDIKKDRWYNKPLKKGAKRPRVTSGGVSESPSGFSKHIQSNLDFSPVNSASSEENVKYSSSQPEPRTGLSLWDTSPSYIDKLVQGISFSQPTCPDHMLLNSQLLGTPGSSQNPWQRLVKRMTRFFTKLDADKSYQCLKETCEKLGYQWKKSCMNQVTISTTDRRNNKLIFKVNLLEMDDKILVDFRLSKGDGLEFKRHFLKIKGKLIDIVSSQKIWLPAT
Description: CHK1 enzyme activity was measured using a homogeneous time resolved fluorescence (HTRF) KinEASE assay (Cisbio, catalogue no. 62ST1PEC). Full-length human CHK1 protein (GenBank accession number NP_001265.1) was obtained from Carna Biosciences, Inc. (catalogue no. 02-117). The enzyme reaction was carried out in assay buffer containing (final concentrations): CHK1 enzyme (0.012 ng µl^−^1), MgCl2 (5 mM) and DTT (1 mM). To determine compound dose response, DMSO stock solutions were serially diluted in a ten-point concentration series in duplicate. Compound solution (50 nl) was added to 384-well assay plates (Greiner, catalogue no. 784075). To each well containing compound solution was added assay buffer solution (5 µl). Plates were centrifuged at 1,000 rpm for 1 min, then incubated at room temperature for 10 min. The reaction was started by addition of substrate buffer (5 µl per well) containing (final concentrations): STK substrate 1-biotin (120 nM) and ATP (1 mM). Assay plates were centrifuged at 1,000 rpm for 1 min, then incubated at room temperature for 60 min. The reaction was stopped by the addition of detection buffer (Cisbio, 10 µl) containing (final concentrations): STK antibody cryptate (0.25 nM) and streptavidin-XL665 (7.5 nM). […] HTRF signal was read on an EnVision multimode plate reader (Cisbio) in HTRF mode. […]

[10] = test system: pCHK1-S345 in HT29 cells; test: AlphaLISA SureFire Ultra p-CHK1 (Ser345) assay in HT29 cells; format: cell-based; details: 16 h, read-out: CHK1 cellular potency AlphaLisa (IC50)
Description: Compound activity in cells was measured using an AlphaLISA SureFire Ultra p-CHK1 (Ser345) assay (Perkin Elmer, catalogue no. ALSU-PCHK1-A10K). HT29 cells were cultured in McCoy 5 A medium with 10% FBS and 1% penicillin-streptomycin and seeded to 96-well plates (Corning, catalogue no. 3599). Compounds were serially diluted in DMSO over a 10-point dose range with 3-fold dilution, and compound solution was added to each well containing cells. Plates were centrifuged at 1,000 rpm for 30 s. Plates were incubated at 37 °C for 16 h. Supernatant was removed by flicking the plate against a paper towel. Wells were washed once with PBS solution. To each well was added freshly prepared lysis buffer and plates were agitated on a plate shaker at 400 rpm for 30 min. The 96-well cell plates were centrifuged at 1,500 rpm for 1 min. From each well was transferred 10 µl of the lysates to a 384-well Optiplate (Perkin Elmer, catalogue no. 6007290). To each well was added Acceptor Mix (5 µl) and the plates were sealed and wrapped in foil. Plates were agitated on a plate shaker for 2 min, then incubated at room temperature for 1 h. To each well was added Donor Mix (5 µl) and the plates were sealed and wrapped in foil. Plates were agitated on a plate shaker for 2 min, then incubated at room temperature for 1 h. AlphaLisa signal was read on an EnVision multimode plate reader (Perkin Elmer). […]

[11] = Extended Data Fig. 8, read-out: IC50 COLO320DM

Structure (SMILES)	DNA damage (γH2AX IF) [1]	IC50 [2]	IC50 fold higher in COLO320HSR compared to COLO320DM ([2]; Fig. 3d)	IC50 [3, 11]	IC50 [4]	IC50 [5]	IC50 [6]	cell apoptosis (TUNEL, PI-Annexin V) [7]	IC50 ([3]; COLO320DM cells, read-out: CTG proliferation ecDNA+ (IC50))	CHK1/CHK2 selectivity [8]	IC50 [9]	IC50 [10]
O=c1[nH]c2ccc(Cl)cc2c(N[C@@H]2CN3CCC2CC3)c1-c1nc2ccccc2[nH]1 [CHIR-124]	significantly higher DNA damage in COLO320DM compared with COLO320HSR	1120 nM	approximately 4 fold	146 nM	581 nM	1660 nM	150 nM	more rapid and higher degree of cell apoptosis	–	–	–	–
N[C@@H]1CCCN(c2c(Br)cnc3[nH]cc(NC(=O)C4CC4)c23)C1 [GDC-0575]	–	588 nM	–	167 nM	–	–	–	–	105 nM	1.5×	12 nM	122 nM
